Assay: Skin irritation test (24 hour patch test)
Parameters: species or system human
Conditions: in vivo; for Average skin irritation score: human, 24 h
Experimental: The patch is applied to the upper part of the back of each panel, using 20 μL of the test ingredient on an IQ chamber (Chemotechique, […]). The patch is removed after 24 hours of application and a first evaluation is conducted in 30 more minutes. After 24 hours, a second evaluation is carried out. To determine the severity of the skin irritation of each specimen, a weighted grade is applied according to the severity of the positive reaction on the skin to calculate the average skin irritation score as given by the following Equation and determine the severity of the skin irritation from the specimen. […] Mild irritation Score≥5: Severe irritation

SMILES | Average skin irritation score (5 %) | Skin irritation, result in words | Average skin irritation score (4 %) | Average skin irritation score (1 %)
CCCCCCCC(=O)OCC(O)CO (stereo not drawn) [Glyceryl caprylate, glyceryl caprylate] | 0.94 | almost no irritation | – | –
C=CCCCCCCCCC(=O)OCC(O)CO (stereo not drawn) [Glyceryl undecylenate, glyceryl undecylenate] | – | almost no irritation | 0.00 | –
COc1ccc(C(=O)O)cc1 [p-anisic acid] | – | almost no irritation | – | 0.94

Reference: patent US10172820B2, “Skin preparation composition for external use having excellent antiseptic ability” (AMOREPACIFIC CORPORATION, priority 2011, dated 2019)
